Source: US6936622B2, “6-phenylbenzonaphthyridines” (Altana Pharma AG, priority 2001, dated 2005)
Where a name gives a salt, the structure may show the parent alone.

Experiments:
[1] = target: PDE4 (cAMP-specific); assay: Inhibition of PDE isoenzymes: PDE4; type: biochemical; conditions: cytosol of human polymorphonuclear leukocytes (PMNL), cAMP as substrate, motapizone 1 μM
Description: (§1) 1. Inhibition of PDE Isoenzymes
(§2) The PDE activity was determined according to Thompson et al. (Adv Cycl Nucl Res 10: 69-92, 1979) with some modifications (Bauer and Schwabe, Naunyn-Schmiedeberg's Arch Pharmacol 311: 193198, 1980). The test samples contained 20 mM Tris (pH 7.4), 5 mM MgCl2, 0.5 μM cAMP or cGMP, [^3H]cAMP or [^3H]cGMP (about 30 000 cpm/sample), the PDE isoenzyme-specific additives described in greater detail below, the indicated concentrations of inhibitor and an aliquot of the enzyme solution in a total sample volume of 200 μl. Dilution series of the compounds according to the invention were prepared in DMSO and further diluted in the samples [1:100 (v/v)], to give the desired end concentration of the inhibitors at a DMSO concentration of 1% (v/v), which for its part has only a minute effect on PDE activity.
(§3) After preincubation at 37° C. for 5 minutes, the reaction was started by addition of the substrate (cAMP or cGMP). The samples were incubated at 37° C. for a further 15 min. The reaction was terminated by addition of 50 μl 0.2 N HCl. After cooling on ice for 10 minutes and addition of 25 μg 5′-nucleotidase (snake venom from Crotalus atrox), the mixture was again incubated at 37° C. for 10 min and the samples were then applied to QAE Sephadex A-25 columns (sample volume 1 ml). The columns were eluted with 2 ml of 30 mM ammonium formate (pH 6.0). The radioactivity of the eluate was measured and corrected by the corresponding blank values (measured in the presence of denatured protein); the blank values were less than 5% of the total radioactivity. In no case did the proportion of hydrolyzed nucleotide exceed 30% of the original substrate concentration.
PDE4 (cAMP-specific) was investigated in the cytosol of human polymorphonuclear leukocytes (PMNL) [isolated from leukocyte concentrates, see Schudt et al., Arch Pharmacol 1991: 344, 682-690] using cAMP as substrate. The PDE3 inhibitor motapizone (1 μM) was used to suppress the PDE3 activity emanating from contaminated platelets.
(§4) The IC50 values were determined from the concentration-inhibition curves by nonlinear regression.

[2] = target: T1, PDE3 (cGMP-inhibited) (Homo sapiens, UniProt Q14432); assay: Inhibition of PDE isoenzymes: PDE3; type: biochemical; conditions: homogenates of human platelets, cAMP or cGMP as substrate; read-out: PDE3 [-log IC50, mol/l] (converted)
T1 construct: investigated in homogenates of human platelets; from tissue; host or cells: homogenates of human platelets
T1 sequence (Q14432 whole entry): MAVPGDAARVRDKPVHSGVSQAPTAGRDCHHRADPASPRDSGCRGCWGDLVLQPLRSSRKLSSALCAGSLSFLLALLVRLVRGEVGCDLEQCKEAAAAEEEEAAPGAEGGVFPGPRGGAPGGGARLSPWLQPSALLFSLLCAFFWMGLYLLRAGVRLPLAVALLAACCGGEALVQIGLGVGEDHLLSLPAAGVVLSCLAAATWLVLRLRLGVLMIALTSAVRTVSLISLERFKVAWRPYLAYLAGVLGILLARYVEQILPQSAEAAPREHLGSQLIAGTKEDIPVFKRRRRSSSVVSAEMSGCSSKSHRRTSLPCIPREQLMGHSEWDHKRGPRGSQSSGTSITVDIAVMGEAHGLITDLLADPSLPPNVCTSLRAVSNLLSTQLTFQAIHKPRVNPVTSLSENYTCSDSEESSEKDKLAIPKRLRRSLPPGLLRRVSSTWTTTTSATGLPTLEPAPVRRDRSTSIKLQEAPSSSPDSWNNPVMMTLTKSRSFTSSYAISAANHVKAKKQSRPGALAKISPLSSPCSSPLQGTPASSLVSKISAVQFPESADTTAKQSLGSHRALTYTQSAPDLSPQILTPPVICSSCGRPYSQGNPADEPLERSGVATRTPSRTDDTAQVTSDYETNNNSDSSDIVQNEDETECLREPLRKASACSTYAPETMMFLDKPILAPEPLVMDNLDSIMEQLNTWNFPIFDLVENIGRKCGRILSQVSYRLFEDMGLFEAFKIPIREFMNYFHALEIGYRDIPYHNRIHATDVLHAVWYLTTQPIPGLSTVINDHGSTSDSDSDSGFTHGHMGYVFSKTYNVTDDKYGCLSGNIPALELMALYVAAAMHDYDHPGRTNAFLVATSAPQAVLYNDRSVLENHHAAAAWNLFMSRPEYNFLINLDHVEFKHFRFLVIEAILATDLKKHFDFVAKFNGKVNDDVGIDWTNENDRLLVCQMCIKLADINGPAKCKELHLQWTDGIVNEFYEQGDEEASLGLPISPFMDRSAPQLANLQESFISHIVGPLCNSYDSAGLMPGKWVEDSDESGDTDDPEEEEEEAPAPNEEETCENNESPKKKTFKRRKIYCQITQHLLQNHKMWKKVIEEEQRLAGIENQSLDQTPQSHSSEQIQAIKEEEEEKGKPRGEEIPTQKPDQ
Description: as §1, §2, §3
PDE3 (cGMP-inhibited) was investigated in homogenates of human platelets (see Schudt et al., Biochem Pharmacol 1991: 42, 153-162) using cAMP or cGMP as substrate.
as §4

Structure (SMILES)	melting point	PDE4 [-log IC50, mol/l] [1]	IC50 [2]
COc1cc2c(cc1OC)[C@@H]1CN(C)CC[C@@H]1N=C2c1ccc(C(=O)N=C(N(C)C)N(C)C)cc1.Cl	161 to 166 °C		
CCOc1cc2c(cc1OC)C(c1ccc(C(=O)NC(=N)N3CCOCC3)cc1)=NC1CCN(C)CC21 (stereo not drawn) (as salt: hydrochloride) [Compound 1, 4-[(+)-cis-9-Ethoxy-8-methoxy-2-methyl-1,2,3,4,4a,10b-hexahydro[c][1,6]naphthyridin-yl)-N-(1-imino-1-morpholin-4-ylmethyl)]benzamide dihydrochloride]	208 to 218 °C		
CCOc1cc2c(cc1OC)C(c1ccc(C(=O)NC(=N)N(CC)CC)cc1)=NC1CCN(C)CC21 (stereo not drawn) (as salt: hydrochloride) [Compound 2, N′-{1-[4-((+)-cis-9-Ethoxy-8-methoxy-2-methyl-1,2,3,4,4a,10b-hexahydro[c][1,6]naphthyridin-6-yl)phenyl]methanoyl}-N,N-diethylguanidine dihydrochloride]	194 to 203 °C		
CCOc1cc2c(cc1OC)C(c1ccc(C(=O)NC(=N)N(C)C)cc1)=NC1CCN(C)CC21 (stereo not drawn) (as salt: hydrochloride) [Compound 3, N′{1-[4-((+)-cis-9-Ethoxy-8-methoxy-2-methyl-1,2,3,4,4a,10b-hexahydro[c][1,6[-naphthyridin-6-yl)phenyl]methanoyl}-N,N-dimethylguanidinedihydrochloride]	134 to 141 °C		
CCOc1cc2c(cc1OC)C(c1ccc(C(=O)NC(=N)N(C)CCO)cc1)=NC1CCN(C)CC21 (stereo not drawn) (as salt: hydrochloride) [Compound 4, N′-{1-[4-((+)-cis-9-Ethoxy-8-methoxy-2-methyl-1,2,3,4,4a,10b-hexahydro[c][1,6]naphthyridin-6-yl)phenyl]methanoyl}-N-(2-hydroxyethyl)-N-methylguanidine dihydrochloride]	172 to 179 °C		
CCOc1cc2c(cc1OC)C(c1ccc(C(=O)NC(=N)N)cc1)=N[C@H]1CCN(C)C[C@@H]21 (relative stereo) [Compound 7, N-{1-[4-((−)-cis-9-Ethoxy-8-methoxy-2-methyl-1,2,3,4,4a,10b-hexahydro-benzo[c]-[1,6]naphthyridin-6-yl)-phenyl]-methanoyl}guanidine]		8.83	195 nM
CCOc1cc2c(cc1OC)C(c1ccc(C(=O)NC(=N)NC)cc1)=N[C@H]1CCN(C)C[C@@H]21 (relative stereo) [Compound 14, N-{1-[4-((−)-cis-9-Ethoxy-8-methoxy-2-methyl-1,2,3,4,4a,10b-hexahydro-benzo[c][1,6]naphthyridin-6-yl)-phenyl]-methanoyl}-N′-methyl-guanidine]		8.82	309 nM
CCOc1cc2c(cc1OC)C(c1ccc(C(=O)NC(=N)NC(C)C)cc1)=N[C@H]1CCN(C)C[C@@H]21 (relative stereo) [Compound 15, N-{1-[4-((−)-cis-9-Ethoxy-8-methoxy-2-methyl-1,2,3,4,4a,10b-hexahydro-benzo[c][1,6]naphthyridin-6-yl)-phenyl]-methanoyl}-N′-isopropyl-guanidine]		9.11	155 nM
CCCNC(=N)NC(=O)c1ccc(C2=N[C@H]3CCN(C)C[C@H]3c3cc(OCC)c(OC)cc32)cc1 (relative stereo) [Compound 16, N-{1-[4-((−)-cis-9-Ethoxy-8-methoxy-2-methyl-1,2,3,4,4a,10b-hexahydro-benzo[c][1,6]naphthyridin-6-yl)-phenyl]-methanoyl}-N′-propyl-guanidine]		9.65	166 nM
CCOc1cc2c(cc1OC)C(c1ccc(C(=O)NC(=N)NCC(C)C)cc1)=N[C@H]1CCN(C)C[C@@H]21 (relative stereo) [Compound 17, N-{1-[4-((−)-cis-9-Ethoxy8-methoxy-2-methyl-1,2,3,4,4a,10b-hexahydro-benzo[c][1,6]naphthyridin-6-yl)-phenyl]-methanoyl}-N′-isobutyl-guanidine]		9.34	123 nM
CCNC(=N)NC(=O)c1ccc(C2=N[C@H]3CCN(C)C[C@H]3c3cc(OCC)c(OC)cc32)cc1 (relative stereo) [Compound 18, N-{1-[4-((−)-cis-9-Ethoxy-8-methoxy-2-methyl-1,2,3,4,4a,10b-hexahydro-benzo[c][1,6]naphthyridin-6-yl)-phenyl]-methanoyl}-N′-ethyl-guanidine]		8.76	245 nM
CCOc1cc2c(cc1OC)C(c1ccc(C(=O)NC(=N)NC3CCCCC3)cc1)=N[C@H]1CCN(C)C[C@@H]21 (relative stereo) [Compound 19, N-Cyclohexyl-N′-{1-[4-((−)-cis-9-ethoxy-8-methoxy-2-methyl-1,2,3,4,4a,10b-hexahydro-benzo [c][1,6]naphthyridin-6-yl)-phenyl]-methanoyl}-guanidine]		9.50	132 nM
CCOc1cc2c(cc1OC)C(c1ccc(C(=O)NC(=N)NCC3CCCCC3)cc1)=N[C@H]1CCN(C)C[C@@H]21 (relative stereo) [Compound 20, N-Cyclohexylmethyl-N′-{1-[4-((−)-cis-9-ethoxy-8-methoxy-2-methyl-1,2,3,4,4a,10b-hexahydro-benzo[c][1,6]naphthyridin-6-yl)-phenyl]-methanoyl}-guanidine]		9.65	97.7 nM
CCCCNC(=N)NC(=O)c1ccc(C2=N[C@H]3CCN(C)C[C@H]3c3cc(OCC)c(OC)cc32)cc1 (relative stereo) [Compound 21, N-Butyl-N′-{1-[4-((−)-cis-9-ethoxy-8-methoxy-2-methyl-1,2,3,4,4a,10b-hexahydro-benzo[c][1,6]naphthyridin-6-yl)-phenyl]-methanoyl}-guanidine]		9.49	129 nM
CCOc1cc2c(cc1OC)C(c1ccc(C(=O)N=C(N(C)C)N(C)C)cc1)=NC1CCN(C)CC21 (single isomer, unassigned) [Compound 5, N″{1-[4-((−)-cis-9-Ethoxy-8-methoxy-2-methyl-1,2,3,4,4a,10b-hexahydro[c][1.6]naphthyridin-6-yl)phenyl]methanoyl}-N,N,N′,N′-tetramethylguanidine hydrochloride]		9.01	129 nM
CCOc1cc2c(cc1OC)C(c1ccc(C(=O)NC(=N)N3CCOCC3)cc1)=NC1CCN(C)CC21 (stereo not drawn) [Compound 1, 4-[(+)-cis-9-Ethoxy-8-methoxy-2-methyl-1,2,3,4,4a,10b-hexahydro[c][1,6]naphthyridin-yl)-N-(1-imino-1-morpholin-4-ylmethyl)]benzamide dihydrochloride]		9.22	135 nM
CCOc1cc2c(cc1OC)C(c1ccc(C(=O)NC(=N)N(CC)CC)cc1)=NC1CCN(C)CC21 (stereo not drawn) [Compound 2, N′-{1-[4-((+)-cis-9-Ethoxy-8-methoxy-2-methyl-1,2,3,4,4a,10b-hexahydro[c][1,6]naphthyridin-6-yl)phenyl]methanoyl}-N,N-diethylguanidine dihydrochloride]		9.77	42.7 nM
CCOc1cc2c(cc1OC)C(c1ccc(C(=O)NC(=N)N(C)C)cc1)=NC1CCN(C)CC21 (stereo not drawn) [Compound 3, N′{1-[4-((+)-cis-9-Ethoxy-8-methoxy-2-methyl-1,2,3,4,4a,10b-hexahydro[c][1,6[-naphthyridin-6-yl)phenyl]methanoyl}-N,N-dimethylguanidinedihydrochloride]		9.39	87.1 nM
CCOc1cc2c(cc1OC)C(c1ccc(C(=O)NC(=N)N(C)CCO)cc1)=NC1CCN(C)CC21 (stereo not drawn) [Compound 4, N′-{1-[4-((+)-cis-9-Ethoxy-8-methoxy-2-methyl-1,2,3,4,4a,10b-hexahydro[c][1,6]naphthyridin-6-yl)phenyl]methanoyl}-N-(2-hydroxyethyl)-N-methylguanidine dihydrochloride]		8.34	1150 nM
CCOc1cc2c(cc1OC)C(c1ccc(C(=O)N=C(N)N3CCN(C)CC3)cc1)=NC1CCN(C)CC21 (stereo not drawn) [Compound 6, N-[1-Amino-1-(4-methylpiperazin-1-yl)methylene]-4-((+)-cis-9-ethoxy-8-methoxy-2-methyl-1,2,3,4,4a,10b-hexahydro[c][1,6]naphthyridin-6-yl)benzamide dihydrochloride]		9.13	363 nM
